Source: patent publication US12209102B2, “Heterocyclic compounds and uses thereof” (Kumquat Biosciences Inc., priority 2022, dated 2025)

Tests used:
Format in all cases: biochemical
[1] = biological target: T1, K-Ras G12V (Homo sapiens, UniProt P01116, G12V); assay: HTRF resonance energy transfer assay, K-Ras G12V / SOS1 interaction; conditions: HTRF assay of Example 5; read-out: IC50 against K-Ras G12V
T1 construct: made in house; host or cells: E. coli BL21 (DE3)
Summary of the method: (§1)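 Buffer about 5 mM HEPES pH 7.4 with ~150 mM NaCl, ~1 mM DTT, 0.05% BSA, 0.0025% (v/v) Igepal. Protein constructs used at molarity matching the IC50 range studied (e.g. ~500 nM). FRET between tagged K-Ras and hSOS1 measured after short incubation.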

[2] = biological target: T2, K-Ras WT (Homo sapiens, UniProt P01116); assay: HTRF resonance energy transfer assay, K-Ras WT / SOS1 interaction; conditions: HTRF assay of Example 5; read-out: IC50 against K-Ras WT
T2 construct: made in house; host or cells: E. coli BL21 (DE3)
Summary of the method: as §1

[3] = biological target: T3, K-Ras G12D (Homo sapiens, UniProt P01116, G12D); assay: HTRF resonance energy transfer assay, K-Ras G12D / SOS1 interaction; conditions: HTRF assay of Example 5; read-out: IC50 against K-Ras G12D
T3 construct: made in house; host or cells: E. coli BL21 (DE3)
Text: This assay can be also used to assess a selective inhibition or reduction of signaling output of a mutant Ras protein relative to a wildtype, or relative to a different mutant Ras protein. For example, the equilibrium interaction of wildtype Kras or K-Ras mutant (e.g., wildtype or a mutant thereof) with SOS1 (e.g., hSOS1) can be assessed as a proxy or an indication for a subject compound's ability to bind and inhibit Ras protein. HTRF assay detects from (i) a fluorescence resonance energy transfer (FRET) donor (e.g., antiGST-Europium) that is bound to GST-tagged K-Ras mutant to (ii) a FRET acceptor (e.g., anti-6His-XL665) bound to a His-tagged hSOS1.
The assay buffer can contain˜5 mM HEPES pH 7.4, ˜150 mM NaCl, ˜ 1 mM DTT, 0.05% BSA and 0.0025%(v/v) Igepal. A Ras working solution is prepared in an assay buffer containing typically a suitable amount of the protein construct (e.g., GST-tagged K-Ras mutant) and the FRET donor (e.g., antiGST-Eu(K) from Cisbio, France). A SOS1 working solution is prepared in an assay buffer containing suitable amount of the protein construct (e.g., His-hSOS1) and the FRET acceptor (e.g., anti-6His-XL665 from Cisbio, France). A suitable amount of the protein construct will depend on the range of activity or range of IC50 values being detected or under investigation. For detecting IC50 within a range of 500 nM, the protein constructs of the same range of molarity can be utilized.
A fixed volume of DMSO with or without test compound is transferred into a 384-well plate. Ras working solution is added to all wells of the test plate. SOS1 working solution is added to all wells except for those that are subsequently filled the inhibitor control solution. Upon incubation for about 10 minutes or longer, the fluorescence is measured with a M1000Pro plate reader (Tecan) using HTRF detection (excitation 337 nm, emission 1: 620 nm, emission 2: 665 nm). Compounds are tested in duplicates at different concentrations (for example, 10 μM, 2.5 μM, 0.63 μM, 0.16 μM, 0.04 μM, 0.01 μM test compound). The ratiometric data (i.e., emission 2 divided by emission 1) is used to calculate IC50 values against Ras using GraphPad Prism (GraphPad software). Following this general procedure, samples were tested with or without a subject compound disclosed herein including compounds exemplified in Table 1 to assess their abilities to inhibit a K-Ras mutant relative to another mutant or WT. Signaling output measured in terms of IC50 values can be obtained, a ratio of IC50 against one mutant relative to another mutant can be calculated. For instance, a selective reduction of K-Ras G12D signaling output can be evidenced by a ratio greater than one. In particular, a selective reduction of K-Ras G12D signaling relative to K-Ras WT signaling is evidenced as the ratio of IC50 (against K-Ras WT) to IC50 (against K-Ras G12D) is greater than 1.

[4] = biological target: T4, K-Ras G12S (Homo sapiens, UniProt P01116, G12S); assay: HTRF resonance energy transfer assay, K-Ras G12S / SOS1 interaction; conditions: HTRF assay of Example 5; read-out: IC50 against K-Ras G12S
T4 construct: made in house; host or cells: E. coli BL21 (DE3)
Summary of the method: as §1

Measured: IC50

T3 sequence (P01116 1-188 isoform P01116-2 G12D): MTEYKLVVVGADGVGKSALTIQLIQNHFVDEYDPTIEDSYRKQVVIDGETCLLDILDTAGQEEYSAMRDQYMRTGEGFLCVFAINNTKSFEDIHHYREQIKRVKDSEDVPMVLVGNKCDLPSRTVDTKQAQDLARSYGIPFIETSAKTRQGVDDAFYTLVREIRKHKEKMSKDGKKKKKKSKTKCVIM
T2 sequence (P01116 1-188 isoform P01116-2): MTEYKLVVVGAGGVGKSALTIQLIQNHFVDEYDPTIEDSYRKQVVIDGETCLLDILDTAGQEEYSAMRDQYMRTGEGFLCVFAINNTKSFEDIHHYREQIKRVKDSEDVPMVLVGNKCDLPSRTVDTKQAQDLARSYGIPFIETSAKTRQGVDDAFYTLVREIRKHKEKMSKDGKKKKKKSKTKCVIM
T4 sequence (P01116 1-188 isoform P01116-2 G12S): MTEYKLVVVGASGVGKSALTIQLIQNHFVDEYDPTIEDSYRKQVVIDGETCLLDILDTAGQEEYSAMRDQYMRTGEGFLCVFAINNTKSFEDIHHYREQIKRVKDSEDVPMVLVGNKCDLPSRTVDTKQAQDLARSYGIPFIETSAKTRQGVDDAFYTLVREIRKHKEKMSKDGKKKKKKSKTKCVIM
T1 sequence (P01116 1-188 isoform P01116-2 G12V): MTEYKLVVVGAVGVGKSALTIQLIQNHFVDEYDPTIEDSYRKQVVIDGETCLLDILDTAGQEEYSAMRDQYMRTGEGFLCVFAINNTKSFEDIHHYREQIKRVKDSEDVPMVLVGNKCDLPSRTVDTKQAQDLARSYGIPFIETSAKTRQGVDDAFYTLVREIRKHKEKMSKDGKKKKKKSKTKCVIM

N#Cc1c(N)sc2c(F)ccc(-c3c(Cl)c4c5c(nc(OC[C@@]67CCCN6C[C@H](F)C7)nc5c3F)N(C3CNC3)CCO4)c12 [Compound 828, 2-amino-4-(4-(azetidin-3-yl)-8-chloro-10-fluoro-2-(((2R,7aS)-2-fluorotetrahydro-1H-pyrrolizin-7a(5H)-yl)methoxy)-5,6-dihydro-4H-[1,4]oxazepino[5,6,7-de]quinazolin-9-yl)-7-fluorobenzo[b]thiophene-3-carbonitrile]
< 100 nM: all assays above

N#Cc1c(N)sc2c(F)ccc(-c3c(Cl)c4c5c(nc(OC[C@@]67CCCN6C[C@H](F)C7)nc5c3F)N(CC(F)F)C(CO)CO4)c12 (stereo partly drawn) [Compound 840, 2-amino-4-(8-chloro-4-(2,2-difluoroethyl)-10-fluoro-2-(((2R,7aS)-2-fluorotetrahydro-1H-pyrrolizin-7a(5H)-yl)methoxy)-5-(hydroxymethyl)-5,6-dihydro-4H-[1,4]oxazepino[5,6,7-de]quinazolin-9-yl)-7-fluorobenzo[b]thiophene-3-carbonitrile]
< 100 nM: all assays above

C#C[C@H]1COc2c(Cl)c(-c3ccc(F)c4sc(N)c(C#N)c34)c(F)c3nc(OC[C@@]45CCCN4C[C@H](F)C5)nc(c23)N1C1CCOC1 (stereo partly drawn) [Compound 843, 2-amino-4-((5S)-8-chloro-5-ethynyl-10-fluoro-2-(((2R,7aS)-2-fluorotetrahydro-1H-pyrrolizin-7a(5H)-yl)methoxy)-4-(tetrahydrofuran-3-yl)-5,6-dihydro-4H-[1,4]oxazepino[5,6,7-de]quinazolin-9-yl)-7-fluorobenzo[b]thiophene-3-carbonitrile]
< 100 nM: all assays above

CC(O)C1COc2c(Cl)c(-c3ccc(F)c4sc(N)c(C#N)c34)c(F)c3nc(OC[C@@]45CCCN4C[C@H](F)C5)nc(c23)N1CC1CNC1 (stereo partly drawn) [Compound 848, 2-amino-4-(4-(azetidin-3-ylmethyl)-8-chloro-10-fluoro-2-(((2R,7aS)-2-fluorotetrahydro-1H-pyrrolizin-7a(5H)-yl)methoxy)-5-(1-hydroxyethyl)-5,6-dihydro-4H-[1,4]oxazepino[5,6,7-de]quinazolin-9-yl)-7-fluorobenzo[b]thiophene-3-carbonitrile]
< 100 nM: all assays above

C[C@H](Oc1nc2c3c(c(Cl)c(-c4ccc(F)c5sc(N)c(C#N)c45)c(F)c3n1)OCCN2C1CC2(CNC2)C1)[C@@H]1CCCN1C [Compound 856, 2-amino-4-(8-chloro-10-fluoro-2-((S)-1-((S)-1-methylpyrrolidin-2-yl)ethoxy)-4-(2-azaspiro[3.3]heptan-6-yl)-5,6-dihydro-4H-[1,4]oxazepino[5,6,7-de]quinazolin-9-yl)-7-fluorobenzo[b]thiophene-3-carbonitrile]
< 100 nM: all assays above

N#Cc1c(N)sc2c(F)ccc(-c3c(Cl)c4c5c(nc(OC[C@@]67CCCN6C[C@H](F)C7)nc5c3F)N([C@H]3CCNC3)CCO4)c12 [Compound 858, 2-amino-4-(8-chloro-10-fluoro-2-(((2R,7aS)-2-fluorotetrahydro-1H-pyrrolizin-7a(5H)-yl)methoxy)-4-((S)-pyrrolidin-3-yl)-5,6-dihydro-4H-[1,4]oxazepino[5,6,7-de]quinazolin-9-yl)-7-fluorobenzo[b]thiophene-3-carbonitrile]
< 100 nM: all assays above

Nc1nc2c(-c3c(Cl)c4c5c(nc(OC[C@@]67CCCN6C[C@H](F)C7)nc5c3F)N(C3CCNCC3)CCO4)ccc(F)c2s1 [Compound 898, 4-(8-chloro-10-fluoro-2-(((2R,7aS)-2-fluorotetrahydro-1H-pyrrolizin-7a(5H)-yl)methoxy)-4-(piperidin-4-yl)-5,6-dihydro-4H-[1,4]oxazepino[5,6,7-de]quinazolin-9-yl)-7-fluorobenzo[d]thiazol-2-amine]
< 100 nM: all assays above

CN(CCCN1CCOc2c(Cl)c(-c3ccc(F)c4sc(N)c(C#N)c34)c(F)c3nc(OC[C@@]45CCCN4C[C@H](F)C5)nc1c23)C(=O)[C@H]1CN1 [Compound 908, (2R)-N-(3-(9-(2-amino-3-cyano-7-fluorobenzo[b]thiophen-4-yl)-8-chloro-10-fluoro-2-(((2R,7aS)-2-fluorotetrahydro-1H-pyrrolizin-7a(5H)-yl)methoxy)-5,6-dihydro-4H-[1,4]oxazepino[5,6,7-de]quinazolin-4-yl)propyl)-N-methylaziridine-2-carboxamide]
< 100 nM: all assays above

N#Cc1c(N)sc2c(F)ccc(-c3c(Cl)c4c5c(nc(OC[C@@]67CCCN6C[C@H](F)C7)nc5c3F)N(C3CCOC3)C(C3(C#N)CC3)CO4)c12 (stereo partly drawn) [Compound 913, 2-amino-4-(8-chloro-5-(1-cyanocyclopropyl)-10-fluoro-2-(((2R,7aS)-2-fluorotetrahydro-1H-pyrrolizin-7a(5H)-yl)methoxy)-4-(tetrahydrofuran-3-yl)-5,6-dihydro-4H-[1,4]oxazepino[5,6,7-de]quinazolin-9-yl)-7-fluorobenzo[b]thiophene-3-carbonitrile]
< 100 nM: all assays above

CNCCCN1c2nc(OC[C@@]34CCCN3C[C@H](F)C4)nc3c(F)c(-c4ccc(F)c5sc(N)c(C#N)c45)c(Cl)c(c23)OCC1CC#N (stereo partly drawn) [Compound 928, 2-amino-4-(8-chloro-5-(cyanomethyl)-10-fluoro-2-(((2R,7aS)-2-fluorotetrahydro-1H-pyrrolizin-7a(5H)-yl)methoxy)-4-(3-(methylamino)propyl)-5,6-dihydro-4H-[1,4]oxazepino[5,6,7-de]quinazolin-9-yl)-7-fluorobenzo[b]thiophene-3-carbonitrile]
< 100 nM: all assays above

N#Cc1c(N)sc2c(F)ccc(-c3c(Cl)c4c5c(nc(OC[C@@]67CCCN6C[C@H](F)C7)nc5c3F)N(C3CCCCN(C(=O)C5CN5)C3)CCO4)c12 (stereo partly drawn) [Compound 934, 2-amino-4-(4-(1-(aziridine-2-carbonyl)azepan-3-yl)-8-chloro-10-fluoro-2-(((2R,7aS)-2-fluorotetrahydro-1H-pyrrolizin-7a(5H)-yl)methoxy)-5,6-dihydro-4H-[1,4]oxazepino[5,6,7-de]quinazolin-9-yl)-7-fluorobenzo[b]thiophene-3-carbonitrile]
< 100 nM: all assays above
